In ChEMBL document CHEMBL1177833, “Synthesis and biological activity of 2-hydroxynicotinoyl-serine-butyl esters related to antibiotic UK-3A” (Bioorg Med Chem Lett, 2010):
In brackets after ≈: the same amount, converted by molar mass.

Legend:
Escherichia coli [1] = assay: Antimicrobial activity against Escherichia coli after 18 to 24 hrs; format: functional
Escherichia coli [2] = assay: Antimicrobial activity against Escherichia coli at 20 uL after 18 to 24 hrs by disk diffusion method; format: functional
Bacillus subtilis [3] = assay: Antimicrobial activity against Bacillus subtilis after 18 to 24 hrs; format: functional
Bacillus subtilis [4] = assay: Antimicrobial activity against Bacillus subtilis at 20 uL after 18 to 24 hrs by disk diffusion method; format: functional
Staphylococcus aureus [5] = assay: Antimicrobial activity against Staphylococcus aureus after 18 to 24 hrs; format: functional
Staphylococcus aureus [6] = assay: Antimicrobial activity against Staphylococcus aureus at 20 uL after 18 to 24 hrs by disk diffusion method; format: functional
Candida albicans [7] = assay: Antimicrobial activity against Candida albicans after 18 to 24 hrs; format: functional
Artemia salina [8] = assay: Toxicity in Artemia salina assessed as mortality at 100 ppm after 24 hrs; format: organism-based; details: in vivo
Artemia salina [9] = assay: Toxicity in Artemia salina assessed as mortality at 250 ppm after 24 hrs; format: organism-based; details: in vivo
Artemia salina [10] = assay: Toxicity in Artemia salina assessed as mortality at 500 ppm after 24 hrs; format: organism-based; details: in vivo
Artemia salina [11] = assay: Toxicity in Artemia salina assessed as mortality at 1000 ppm after 24 hrs; format: organism-based; details: in vivo
Artemia salina [12] = assay: Toxicity in Artemia salina after 24 hrs; format: organism-based; details: in vivo
Candida albicans [13] = assay: Antimicrobial activity against Candida albicans after 18 to 24 hrs at 20 uL by disk diffusion assay; format: functional

| Structure (SMILES) | MIC (Escherichia coli [1]) [µg/mL] | diameter of the inhibition zone (DIZ) (Escherichia coli [2]) [mm] | MIC (Bacillus subtilis [3]) [µg/mL] | diameter of the inhibition zone (DIZ) (Bacillus subtilis [4]) [mm] | MIC (Staphylococcus aureus [5]) [µg/mL] | diameter of the inhibition zone (DIZ) (Staphylococcus aureus [6]) [mm] | MIC (Candida albicans [7]) [µg/mL] | LC50 (Artemia salina [8]) [ppm] | LC50 (Artemia salina [9]) [ppm] | LC50 (Artemia salina [10]) [ppm] | LC50 (Artemia salina [11]) [ppm] | LC50 (Artemia salina [12]) [ppm] | diameter of the inhibition zone (DIZ) (Candida albicans [13]) [mm] |
| --- | --- | --- | --- | --- | --- | --- | --- | --- | --- | --- | --- | --- | --- |
| CCCCOC(=O)[C@H](COC(=O)CCc1ccccc1)NC(=O)c1cccnc1O | 1000 (≈ 2410 µM) | 7.83 | 500 (≈ 1210 µM) | 7 | 1000 (≈ 2410 µM) | 7.5 | 1000 (≈ 2410 µM) | 26.67 | 55.58 | 76.67 | 100 | 266.83 | 7.5 |
| CCCCCCCC(=O)OC[C@H](NC(=O)c1cccnc1O)C(=O)OCCCC | 75 (≈ 184 µM) | 7 | 50 (≈ 122 µM) | 7 | 100 (≈ 245 µM) | 7 | 250 (≈ 612 µM) | 0 | 0 | 2.78 | 11.02 | 3620.41 | 7.83 |
| CCCCOC(=O)[C@H](COC(C)=O)NC(=O)c1cccnc1O | 250 (≈ 771 µM) | 7 | 250 (≈ 771 µM) | 7 | 250 (≈ 771 µM) | 7.5 | 500 (≈ 1540 µM) | 4.94 | 9.7 | 39.62 | 58.66 | 811.01 | 7.5 |
| CCCC[C@H]1C(=O)O[C@H](C)[C@H](NC(=O)c2cccc(NC=O)c2O)C(=O)O[C@@H](C)[C@@H]1OC(=O)CC(C)C [ANTIMYCIN A3] | 50 (≈ 96 µM) | 7 | 250 (≈ 480 µM) | 8.5 | 250 (≈ 480 µM) | 8 | 50 (≈ 96 µM) |  |  |  |  |  | 10 |
